# Test results as given in patent US9340559B2, “Proteasome inhibitor delanzomib for use in the treatment of lupus” (Cephalon, Inc., priority 2011, dated 2016).
# How the values were obtained:
# Type in all cases: in vivo, mouse
# NZM mice [1] = assay: Renal histopathology scoring (kidney IC-GN), NZM mice (Example 2)
# Protocol: (§1) For histological analyses, the left kidney from each animal is removed and fixed in 10% buffered neutral formalin (EMD) for 48 hours on an orbital rocker at 25° C., then washed overnight with running dH2O and stored in 70% ethanol at 4° C. until ready to be processed. Kidney stains used for histological analyses included hematoxylin and eosin (H&E), Periodic Acid Schiff (PAS) and Trichrome stains (Wistar Institute, Philadelphia, Pa.). All 3 stained sections are used by the pathologist for scoring purposes. All histological scoring is performed blinded and by an independent board certified veterinary medical pathologist (Julie Engiles, VMD, DACVP). Multiple stains are used to determine score values. Images in FIG. 39 show worst affected area of section selected blindly by the pathologist.
# (§2) Kidney IC-GN Scoring Method (Smith, Dong et al. 2007):
# (§3) 1. Glomerular cellularity—Score 1-5: Null, low, moderate, high, severe
# (§4) 2. Glomerular necrosis—Score 1-5: Null, low, moderate, high, severe
# (§5) 3. Glomerulosclerosis—Score 1-5: Null, low, moderate, high, severe
# (§6) 4. Interstitial infiltration—Score 1-5: Null, low, moderate, high, severe
# (§7) 5. Tubular atrophy—Score 1-5: Null, low, moderate, high, severe
# (§8) 6. Interstitial fibrosis—Score 1-5: Null, low, moderate, high, severe
# (§9) 7. Vasculitis—Score 1-5: Null, low, moderate, high, severe
# (§10) Specific Pathologist Definitions: • Necrosis is defined by the presence of nuclear debris/pyknosis within the glomerular tuft indicative of “necrosis.” In many samples, this is a very mild, rare finding within only a very few segments of the glomerular tuft. Also consider effacement of the glomerular tuft by PAS positive, Trichrome negative material necrosis. • Glomerular sclerosis is defined by increased fibroplasia or fibrosis within the glomerular tuft or capsule. […] Most of the vascular changes are mild and could be considered “arteriosclerosis” characterized by proliferation of the smooth muscle cells, and hyalinization of the extracellular matrix. This change may reflect hypertension secondary to glomerular pathology. In very few animals is there overt “vasculitis.” Most inflammatory changes are within the walls of the blood vessels, with little to no damage to the endothelium, and no overt hemorrhage/fibrin leakage. Many also have perivascular rims of fibroblasts.
# MRL/lpr mice [2] = assay: Urinalysis: urine leukocytes (leukouria), Uristix, MRL/lpr mice
# Protocol: Urine samples are acid precipitated for total protein recovery and analysis. Samples for which enough urine remained are used for Uristix® leukouria analysis. Briefly, a standard protein solution is prepared from normal mouse sera and is used as a standard for mouse urinary protein assay by turbidity. Standard preparation is as follows: 0, 5, 10, 15, 20, 30, 40, and 50 μL of a 4 mg/mL mouse sera standard protein solution as provided in the kit are added in duplicate into two columns. PBS is added to individual wells to adjust the final volume to 50 μL. For urine sample preparation, urine samples are centrifuged at 9880×g for 3 minutes using a tabletop micro-centrifuge. Urine supernatant (1-50 μL) is added in duplicate. PBS is added to adjust the volume to 50 μL total. For the turbidity assay: 25 μL of 0.1 N HCl is added into blank columns and 250 μL of 3% sulfosalicyclic acid into the test columns. The microplate is incubated for 10 minutes at RT and plates are read using an ELISA reader with single beam at 450 nm. For the Uristix® strip assay, strips are laid out and labeled. Twenty microliters of urine are placed onto each test strip square and incubated for at least 30 seconds before the result is recorded. For all total urine analysis plate-based assays, values below the limit of detection set by the lowest point along the standard or set by the manufacturer are considered out of range and are not estimated, but assumed the lowest point along the standard curve for that particular assay.
# NZM mice [3] = assay: Collagen type-I cross-linker (CTx) bone resorption biomarker ELISA, serum of NZM mice
# Protocol: Assay is performed as instructed by the manufacturer. Briefly, biotinylated ratlaps antigen is first added in each well of a 96-well ELISA plate. This plate is covered and incubated for 30 minutes at RT. Plate is washed five times with washing solution and incubated with standards or unknown samples in appropriate wells followed by primary Ab. Incubate overnight for 18 hours at 4° C. followed by washing with buffer. Secondary incubation includes a peroxidase conjugated goat anti-rabbit IgG added to each well and incubation at RT for 1 hour. Incubation with chromogenic substrate solution for 15 minutes at RT in the dark develops the plate for analysis. Stopping solution halts the reaction, absorbance is measured within 2 hours at 450 nm.
# MRL/lpr mice [4] = assay: Renal histopathology scoring (kidney IC-GN), MRL/lpr mice
# Protocol: as §1, with “neutral 10%” for “neutral”, “17” for “39”
# as §2, §3, §4, §5, §6, §7, §8, §9, §10
# NZM mice [5] = assay: Urinalysis: total urine protein (proteinuria), NZM mice (Example 2)
smiles,measurement,setting,value
"CC(C)C[C@H](NC(=O)[C@H](Cc1ccccc1)NC(=O)c1cnccn1)B(O)O [bortezomib, reference compound]","Kidney glomerular cellularity, percent change vs vehicle","NZM mice [1]; G3 0.3 mg/kg ip, 1× wk",−12%
same,"Kidney glomerular necrosis, percent change vs vehicle","NZM mice [1]; G3 0.3 mg/kg ip, 1× wk",18%
same,"Kidney glomerulosclerosis, percent change vs vehicle","NZM mice [1]; G3 0.3 mg/kg ip, 1× wk",8%
same,"Kidney interstitial fibrosis, percent change vs vehicle","NZM mice [1]; G3 0.3 mg/kg ip, 1× wk",−5%
same,"Kidney interstitial infiltration, percent change vs vehicle","NZM mice [1]; G3 0.3 mg/kg ip, 1× wk",−15%
same,"Kidney tubular atrophy, percent change vs vehicle","NZM mice [1]; G3 0.3 mg/kg ip, 1× wk",−6%
same,"Kidney vasculitis, percent change vs vehicle","NZM mice [1]; G3 0.3 mg/kg ip, 1× wk",−21%
same,"p, interstitial infiltration (II) vs G7 Vehicle",NZM mice [1]; G4 0.3 mg/kg 2× wk,p < 0.05
same,"Kidney glomerular cellularity, percent change vs vehicle","NZM mice [1]; G4 0.3 mg/kg ip, 2× wk",−21%
same,"Kidney glomerular necrosis, percent change vs vehicle","NZM mice [1]; G4 0.3 mg/kg ip, 2× wk",3%
same,"Kidney glomerulosclerosis, percent change vs vehicle","NZM mice [1]; G4 0.3 mg/kg ip, 2× wk",−29%
same,"Kidney interstitial fibrosis, percent change vs vehicle","NZM mice [1]; G4 0.3 mg/kg ip, 2× wk",−22%
same,"Kidney interstitial infiltration, percent change vs vehicle","NZM mice [1]; G4 0.3 mg/kg ip, 2× wk",−44%
same,"Kidney tubular atrophy, percent change vs vehicle","NZM mice [1]; G4 0.3 mg/kg ip, 2× wk",−32%
same,"Kidney vasculitis, percent change vs vehicle","NZM mice [1]; G4 0.3 mg/kg ip, 2× wk",−14%
same,interstitial infiltration reduction vs vehicle,NZM mice [1]; bortezomib treatment group (twice weekly dose),44%
same,decrease in renal histopathology score over several parameters vs vehicle,"NZM mice [1]; mouse, in vivo",6-14%
same,"Urine AUC leukocytes, percent change vs vehicle","MRL/lpr mice [2]; G4: 0.5 mg/kg iv, 1× wk",−78%
same,"Urine AUC leukocytes, percent change vs vehicle","MRL/lpr mice [2]; G5: 0.3 mg/kg iv, 2× wk",−70%
same,"Serum CTx linker AUC, percent change vs vehicle","NZM mice [3]; G3 0.3 mg/kg ip, 1× wk",−27%
same,"Serum CTx linker AUC, percent change vs vehicle","NZM mice [3]; G4 0.3 mg/kg ip, 2× wk",−35%
same,serum CTx levels compared to vehicle,NZM mice [3]; treatment groups,no change in CTx levels
same,"EOS glomerular cellularity, percent change vs vehicle","MRL/lpr mice [4]; G4: 0.5 mg/kg iv, 1× wk",−31%
same,"EOS glomerular necrosis, percent change vs vehicle","MRL/lpr mice [4]; G4: 0.5 mg/kg iv, 1× wk",−28%
same,"EOS glomerulosclerosis, percent change vs vehicle","MRL/lpr mice [4]; G4: 0.5 mg/kg iv, 1× wk",−42%
same,"EOS interstitial infiltration, percent change vs vehicle","MRL/lpr mice [4]; G4: 0.5 mg/kg iv, 1× wk",−47%
same,"EOS vasculitis, percent change vs vehicle","MRL/lpr mice [4]; G4: 0.5 mg/kg iv, 1× wk",−42%
same,"Kidney EOS interstitial fibrosis, percent change vs vehicle","MRL/lpr mice [4]; G4: 0.5 mg/kg iv, 1× wk",−46%
same,"Kidney EOS tubular atrophy, percent change vs vehicle","MRL/lpr mice [4]; G4: 0.5 mg/kg iv, 1× wk",−50%
same,"EOS glomerular cellularity, percent change vs vehicle","MRL/lpr mice [4]; G5: 0.3 mg/kg iv, 2× wk",−15%
same,"EOS glomerular necrosis, percent change vs vehicle","MRL/lpr mice [4]; G5: 0.3 mg/kg iv, 2× wk",−25%
same,"EOS glomerulosclerosis, percent change vs vehicle","MRL/lpr mice [4]; G5: 0.3 mg/kg iv, 2× wk",−18%
same,"EOS interstitial infiltration, percent change vs vehicle","MRL/lpr mice [4]; G5: 0.3 mg/kg iv, 2× wk",−39%
same,"EOS vasculitis, percent change vs vehicle","MRL/lpr mice [4]; G5: 0.3 mg/kg iv, 2× wk",−21%
same,"Kidney EOS interstitial fibrosis, percent change vs vehicle","MRL/lpr mice [4]; G5: 0.3 mg/kg iv, 2× wk",−27%
same,"Kidney EOS tubular atrophy, percent change vs vehicle","MRL/lpr mice [4]; G5: 0.3 mg/kg iv, 2× wk",−27%
same,maximum reduction of renal interstitial infiltration vs vehicle,MRL/lpr mice [4]; bortezomib groups,47%
same,decrease in average renal pathology score vs vehicle,MRL/lpr mice [4]; treated weekly with bortezomib,1.68 fold
same,"Urine proteinuria AUC, percent change vs vehicle","NZM mice [5]; G3 0.3 mg/kg ip, 1× wk",30%
same,"Urine proteinuria AUC, percent change vs vehicle","NZM mice [5]; G4 0.3 mg/kg ip, 2× wk",−57%
"C[C@@H]1C[C@H]2[C@@H]3CCC4=CC(=O)C=C[C@]4(C)[C@@]3(F)[C@@H](O)C[C@]2(C)[C@@]1(O)C(=O)CO [dexamethasone, Dexamethasone, reference compound]","Kidney glomerular cellularity, percent change vs vehicle","NZM mice [1]; G5 1.5 mg/kg ip, 3× wk",−38%
same,"Kidney glomerular necrosis, percent change vs vehicle","NZM mice [1]; G5 1.5 mg/kg ip, 3× wk",−16%
same,"Kidney glomerulosclerosis, percent change vs vehicle","NZM mice [1]; G5 1.5 mg/kg ip, 3× wk",−17%
same,"Kidney interstitial fibrosis, percent change vs vehicle","NZM mice [1]; G5 1.5 mg/kg ip, 3× wk",−36%
same,"Kidney interstitial infiltration, percent change vs vehicle","NZM mice [1]; G5 1.5 mg/kg ip, 3× wk",−36%
same,"Kidney tubular atrophy, percent change vs vehicle","NZM mice [1]; G5 1.5 mg/kg ip, 3× wk",−25%
same,"Kidney vasculitis, percent change vs vehicle","NZM mice [1]; G5 1.5 mg/kg ip, 3× wk",−40%
same,"p, glomerular cellularity (GC) vs G8 NZW/LacJ non-diseased",NZM mice [1]; G6 1.5 mg/kg 1× wk,p < 0.01
same,"p, glomerular necrosis (GN) vs G5 CTX 50 mg/kg 1× wk",NZM mice [1]; G6 1.5 mg/kg 1× wk,p < 0.05
same,"p, glomerular necrosis (GN) vs G8 NZW/LacJ non-diseased",NZM mice [1]; G6 1.5 mg/kg 1× wk,p < 0.01
same,"p, glomerular necrosis (GN) vs G9 NZM diseased baseline",NZM mice [1]; G6 1.5 mg/kg 1× wk,p < 0.05
same,"p, glomerulosclerosis (GS) vs G4 Bortezomib 0.3 mg/kg 2× wk",NZM mice [1]; G6 1.5 mg/kg 1× wk,p < 0.001
same,"p, glomerulosclerosis (GS) vs G5 CTX 50 mg/kg 1× wk",NZM mice [1]; G6 1.5 mg/kg 1× wk,p < 0.05
same,"p, glomerulosclerosis (GS) vs G8 NZW/LacJ non-diseased",NZM mice [1]; G6 1.5 mg/kg 1× wk,p < 0.001
same,"p, glomerulosclerosis (GS) vs G9 NZM diseased baseline",NZM mice [1]; G6 1.5 mg/kg 1× wk,p < 0.05
same,"p, interstitial fibrosis (IF) vs G5 CTX 50 mg/kg 1× wk",NZM mice [1]; G6 1.5 mg/kg 1× wk,p < 0.05
same,"p, interstitial fibrosis (IF) vs G8 NZW/LacJ non-diseased",NZM mice [1]; G6 1.5 mg/kg 1× wk,p < 0.05
same,"p, interstitial infiltration (II) vs G4 Bortezomib 0.3 mg/kg 2× wk",NZM mice [1]; G6 1.5 mg/kg 1× wk,p < 0.01
same,"p, interstitial infiltration (II) vs G5 CTX 50 mg/kg 1× wk",NZM mice [1]; G6 1.5 mg/kg 1× wk,p < 0.05
same,"p, interstitial infiltration (II) vs G8 NZW/LacJ non-diseased",NZM mice [1]; G6 1.5 mg/kg 1× wk,p < 0.05
same,"p, tubular atrophy (TA) vs G4 Bortezomib 0.3 mg/kg 2× wk",NZM mice [1]; G6 1.5 mg/kg 1× wk,p < 0.01
same,"p, tubular atrophy (TA) vs G5 CTX 50 mg/kg 1× wk",NZM mice [1]; G6 1.5 mg/kg 1× wk,p < 0.05
same,"p, tubular atrophy (TA) vs G8 NZW/LacJ non-diseased",NZM mice [1]; G6 1.5 mg/kg 1× wk,p < 0.01
same,"Urine AUC leukocytes, percent change vs vehicle","MRL/lpr mice [2]; G6: 1.5 mg/kg ip, 3× wk",−100%
same,"Serum CTx linker AUC, percent change vs vehicle","NZM mice [3]; G5 1.5 mg/kg ip, 3× wk",21%
same,"p, serum concentration of collagen type I cross-linker vs G5 Bortezomib 0.3 mg/kg 1× wk ip",NZM mice [3]; G8 1.5 mg/kg 3× wk ip,p < 0.05
same,"p, serum concentration of collagen type I cross-linker vs G6 Bortezomib 0.3 mg/kg 2× wk ip",NZM mice [3]; G8 1.5 mg/kg 3× wk ip,p < 0.01
same,"EOS glomerular cellularity, percent change vs vehicle","MRL/lpr mice [4]; G6: 1.5 mg/kg ip, 3× wk",−15%
same,"EOS glomerular necrosis, percent change vs vehicle","MRL/lpr mice [4]; G6: 1.5 mg/kg ip, 3× wk",−25%
same,"EOS glomerulosclerosis, percent change vs vehicle","MRL/lpr mice [4]; G6: 1.5 mg/kg ip, 3× wk",−27%
same,"EOS interstitial infiltration, percent change vs vehicle","MRL/lpr mice [4]; G6: 1.5 mg/kg ip, 3× wk",−50%
same,"EOS vasculitis, percent change vs vehicle","MRL/lpr mice [4]; G6: 1.5 mg/kg ip, 3× wk",−18%
same,"Kidney EOS interstitial fibrosis, percent change vs vehicle","MRL/lpr mice [4]; G6: 1.5 mg/kg ip, 3× wk",−27%
same,"Kidney EOS tubular atrophy, percent change vs vehicle","MRL/lpr mice [4]; G6: 1.5 mg/kg ip, 3× wk",−23%
same,"Urine proteinuria AUC, percent change vs vehicle","NZM mice [5]; G5 1.5 mg/kg ip, 3× wk",27%
